# Laboratory results as given in patent US20110263647A1 (AMGEN INC., priority 2009, published 2011).
# Structures can show the parent of a compound that is named as a salt. Where two headings read alike, the source gives them in different places.
# What was measured:
# [1] = In vivo pharmacokinetics, IV and oral gavage; design: species or system male Sprague-Dawley rats; conditions: rat; for FPO: Table 5; for Fpo (%): Table 6; for clearance / AUC(0-t) / Cmax / Vd: male, Sprague-Dawley, plasma; for Vd: read-out: Vss
# Procedure: In vivo pharmacokinetic parameters were determined by measuring systemic plasma exposure in male Sprague-Dawley rats (Charles River Laboratories or Taconic, Oxnard, Calif.) by intravenous administration (N=3 fed rats: 2 mg/kg tail vein injection in DMSO) and oral gavage (N=3 fasted rats: 5 mg/kg in 1% Tween 80-2% HPMC-97% deionized water-pH 2.0 vehicle) (Comparative Example 18′ was only dosed IV and at 0.5 mg/kg). DMSO was obtained from Mallinckrodt Inc.; Tween 80 was obtained from Croda; HPMC is Methocel E50 Premium LV, obtained from Dow Excipients. Following oral administration, blood was drawn (250 μL) at 0.25, 0.5, 1, 2, 4, 6, 8, 12, and 16 hours. Following iv administration, blood was drawn (250 μL) at 0.083, 0.25, 0.5, 1, 2, 4, 6, 8, and 16 hours. Blood samples were drawn using a Culex® In Vivo Sampling System (BASi) and collected in BD Microtainer® tubes containing Lithium Heparin (BD). Plasma was obtained by centrifugation of blood at 14000 g and 2-8° C. for five minutes using an Eppendorf 5417R Centrifuge System. Plasma samples were mixed with 2× volume of acetonitrile (Sigma-Aldrich, St. Louis, Mo.). The mixture was stirred briefly using a vortex mixer and then centrifuged at 2867 g for 5 minutes in a Beckman Coulter Allegra 25R equipped with a Type S5700 rotor. The supernatant was removed and diluted 2× with mobile phase A (5/94.9/0.1 v/v/v MeOH/water/AcOH). Plasma concentrations were determined using liquid chromatography/tandem mass spectrometry, with electrospray ionization (ESI) and multiple reaction monitoring in the positive ion mode (Sciex API 3000 mass spectrometer connected to a Shimadzu LC-20AD pump and a LEAP PAL autosampler. Typical conditions used for HPLC were: mobile phase A=5/94.9/0.1 v/v/v MeOH/water/AcOH and mobile phase B=95/4.9/0.1 v/v/v MeOH/water/AcOH; HPLC column was a Varian MonoChrom C18.3μ for 2×30 mm and 51.1 for 2×50 mm) Instrument response was calibrated by a standard curve over 0.1-2000 ng/mL concentration range, and the lower limit of quantitation was 0.1-2.5 ng/mL. Peak areas were integrated on a Windows 2000 computer using the Sciex program Analyst® (Version 1.4.1). Following peak area integration, the data were exported to the software package (Watson® Non-GLP PROD (Version 7.0.0.01, Thermo Electron Corp., Waltham, Mass.)), where concentrations were determined by a weighted linear regression of peak area versus the nominal concentrations of the calibration standards. Calculations were performed on unrounded numbers. The Watson® Non-GLP PROD software was used to determine precision and accuracy for the calibration standards. Noncompartmental analysis of plasma concentration data was used to generate PK parameters such as clearance (CL, L/h/kg), volume of distribution (Vss, L/kg), area under the curve (AUC, ng·h/mL) and secondary parameters such as half-life (t1/2, h) and oral bioavailability (% F, %). This was done using WinNonlin Enterprise software (Version 5.1.1, from Pharsight Corp., Mountain View, Calif.). References for pharmacokinetic analysis include: Gabrielsson and Weiner (1997) Pharmacokinetic and Pharmacodynamic Data Analysis Concepts and Applications, 2nd ed., Swedish Pharmaceutical Press, Stockholm; Gibaldi and Perrier (1982) Pharmacokinetics, 2nd ed., Marcel Dekker, New York. Rowland and Tozer (1995) Clinical Pharmacokinetics: Concepts and Applications, 3rd ed., Lippincott Williams & Wilkins, Philadelphia.
# PKBα = target: T1, PKBα (Homo sapiens, UniProt P31749); assay: PKB kinase assay (P33-labeled ATP, peptide substrate, filter plate); type: biochemical; conditions: with respect to PKBα
# T1 construct: fused on or other part: His6 tag is likely on the Upstate products
# T1 sequence (P31749 118-472 limits assumed): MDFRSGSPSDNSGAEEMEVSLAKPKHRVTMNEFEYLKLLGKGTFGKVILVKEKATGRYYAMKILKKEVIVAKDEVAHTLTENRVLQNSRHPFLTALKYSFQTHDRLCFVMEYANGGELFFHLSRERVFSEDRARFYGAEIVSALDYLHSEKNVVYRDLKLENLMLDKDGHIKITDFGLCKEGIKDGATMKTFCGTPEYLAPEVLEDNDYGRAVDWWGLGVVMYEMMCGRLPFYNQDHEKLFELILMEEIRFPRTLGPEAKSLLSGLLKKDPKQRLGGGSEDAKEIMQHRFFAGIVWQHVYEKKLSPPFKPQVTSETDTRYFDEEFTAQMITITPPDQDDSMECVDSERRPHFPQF
# Description: The kinase assay for evaluating PKB activity comprises active PKB enzymes, a PKB specific substrate, and P^33-labeled ATP. Two form of PKBα enzymes were used, the full length PKBα and a kinase domain of PKBα with pleckstrin domain (amino acids 1-117) deleted. Both PKB enzymes were obtained from Upstate cell signaling solutions (Cat.# 14-276 and 14-341). The PKB substrate used is a synthetic peptide (ARKRERTYSFGHHA (SEQ ID NO: 1)) as described in Obata et al., J. Biol. Chem. 275 (46), 36108-36115 (2000). The phosphorylated substrate was captured by a phosphocellulose membrane filter plate (MILLIPORE) and measured by a Wallac Microbeta liquid scintillation counter (Perkin Elmer). Table 1 provides the IC50 values obtained for each of the examples with respect to PKBα.
# [2] = IV 2 mg/kg, read-out: IV AUClast
# [3] = PO 5 mg/kg, read-out: Oral AUClast
# [4] = PO 5 mg/kg, read-out: Oral Cmax
"FPO ([1]; PO 5 mg/kg, IV 2 mg/kg) [%]","Fpo (%) ([1]; PO 5 mg/kg, IV 2 mg/kg)",clearance ([1]; IV 2 mg/kg) [mL/min/kg],"AUC(0-t) [1, 2] [ng·h/mL]","Cmax ([1]; IV 2 mg/kg, read-out: IV Cmax) [ng/mL]",Vd ([1]; IV 2 mg/kg) [L/kg],"AUC(0-t) [1, 3] [ng·h/mL]","Cmax [1, 4] [ng/mL]",IC50 (PKBα) [nM],Structure (SMILES)
55,34,29.9,1100,396,9.88,1500,58,50 to 1000,"N[C@H](CNc1ncc(-c2ccc3cnc(F)cc3c2)s1)CN1CCC(C(F)(F)F)CC1 [Example 25, N—((R)-2-Amino-3-(4-(trifluoromethyl)piperidin-1-yl)propyl)-5-(3-fluoroisoquinolin-6-yl)thiazol-2-amine]"
28,28,9.02,3130,803,3.41,2150,268,< 50,"N[C@H](CNc1ncc(-c2ccc3cnc(F)cc3c2)s1)[C@@H](CO)c1ccc(C(F)(F)F)cc1 [Example 33, (2S,3S)-3-Amino-4-(5-(3-fluoroisoquinolin-6-yl)thiazol-2-ylamino)-2-(4-(trifluoromethyl)phenyl)butan-1-ol]"
64,66,14.6,1600,210,14.4,2560,206,< 50,"N[C@H](CCc1ncc(-c2ccc3cnc(F)cc3c2)s1)[C@@H](O)c1ccc(C(F)(F)F)cc1 [Example 36, (1S,2R)-2-Amino-4-(5-(3-fluoroisoquinolin-6-yl)thiazol-2-yl)-1-(4-(trifluoromethyl)phenyl)butan-1-ol trifluoroacetate]"
36,45,8.53,3010,473,9.48,2730,100,< 50,"CC(F)(F)c1ccc([C@H](O)[C@H](N)CNc2ncc(-c3ccc4cnc(F)cc4c3)s2)cc1 [Example 38, (1S,2R)-2-Amino-1-(4-(1,1-difluoroethyl)phenyl)-3-((5-(3-fluoro-6-isoquinolinyl)-1,3-thiazol-2-yl)amino)-1-propanol trifluoroacetate]"
65,67,8.2,2030,292,11.4,3290,261,< 50,"N[C@H](CNc1ncc(-c2ccc3cnc(F)cc3c2)s1)Cc1ccc(Cl)c(F)c1 [Example 44, (2S)-3-(4-Chloro-3-fluorophenyl)-N-1-(5-(3-fluoro-6-isoquinoliny)-1,3-thiazol-2-yl)-1-2-propanediamine]"
103,85,45.1,709,165,15.3,1820,228,< 50,CC(F)(F)c1ccc(C[C@H](N)CCc2ncc(-c3ccc4cnc(F)cc4c3)s2)cn1 [Example 50]
